Measured values from patent EP0171342A1, “Substituted 2-(1-amino-akylidenyl)1,3-indane diones, process for their preparation and their therapeutical use” (priority 1984, dated 1986).
Converted amounts (≈) assume the structure as drawn. Like-named read-outs stand apart in the source and are kept apart here.

Legend:
souris [1] = assay: Anticonvulsant activity: bicuculline-induced convulsions in mice; assay type: in vivo; settings: mouse, i.p., 100 mg/kg
Experimental: L'activité anticonvulsivante est également déterminée dans le test des inhibitions des convulsions induites par la bicuculline. Des souris reçoivent par voie intrapéritonéale le produit à tester, puis 30 mn et 5 heures plus tard, deux injections séparées de 0,5 mg de bicuculline. […] Les résultats de ce test sont le reflet d'une activité gabaergique directe.

[2] = system: oedème induit par l'injection intraplantaire de carragénine chez le rat; assay: Anti-inflammatory activity: carrageenan paw oedema in rats; assay type: in vivo; settings: oral 1 h before carrageenan, measured 3 h after
Experimental: L'activité antiinflammatoire a été déterminée chez le rat par la mesure de l'inhibition de l'oedème induit par l'injection intraplantaire de 0,1 ml d'une suspension à 1% de carragénine chez le rat. Les produits à tester sont administrés par voie orale lh avant l'injection de carragénine et la mesure est réalisée 3h après cette injection. Les COR3789, COR3792, COR4003, COR4008 et COR4010 administrés à 10b mg/kg entrainent respectivement 43, 42, 41, 38 et 39% d'inhibition. Administré à 200 mg/kg, le COR3773 entraine 53% d'inhibition. L'aspirine administrée dans les mêmes conditions à 150 mg/kg entraine 40% d'inhibition de l'oedème.

iléon de cobaye = assay: Spasmolytic activity: guinea pig ileum contractions induced by transmural stimulation; settings: 2 microg/ml, oxygenated Krebs solution at 32°C; for inhibition at 2 µg/mL: read-out: inhibition de ces contractions
Experimental: L'activité spasmolytique a été déterminée in vitro par la mesure de l'effet du produit à tester sur les contractions de l'iléon de cobaye induites par stimulation transmurale dans une solution de Krebs oxygénée à 32°C. Le COR4010 et le COR3773 utilisés à la concentration de 2 microg/ml entrainent 50% d'inhibition de ces contractions.

souris [3] = assay: Acute toxicity (mortality, LD50) in mice; assay type: in vivo; settings: mouse
[4] = system: segments d'iléon de cobaye isolés; assay: Anticholinergic activity: acetylcholine-induced contractions of isolated guinea pig ileum; settings: Cavia porcellus; contractions induced by 0,1 microg/ml acetylcholine; read-out: concentration qui inhibe ces contractions de 80%
Excerpt: L'activité anticholinergique a été appréciée par la mesure des contractions induites par 0,1 microg/ml d'acétylcholine sur des segments d'iléon de cobaye isolés. Les COR3760, COR3789, COR3792, COR4003, COR4008, COR4010, COR4014 utilisés respectivement aux concentrations de 50, 25, 25, 50, 25, 10, 25 microg/ml inhibent ces contractions de 80%.

[5] = system: oreillette gauche de cobaye; assay: Calcium antagonist activity: electrically stimulated guinea pig left atrium; settings: 150 beats/min, low-calcium (0,6 mM) Tyrode solution; read-out: concentration qui inhibe de 50% l'augmentation de la force de contraction induite par l'addition de 0,6 mM de calcium
Experimental: L'activité anticalcique a été déterminée in vitro sur deux modèles expérimentaux.
Sur oreillette gauche de cobaye stimulée électriquement à 150 battements/mn dans une solution de Tyrode pauvre en calcium (0,6 mM), les COR3789, COR3792, COR4009, COR4010 et COR4011 employés respectivement à 25, 100, 50, 10 et 25 microg/ml inhibent de 50% l'augmentation de la force de contraction induite par l'addition de 0,6 mM de calcium.

[6] = system: rat soumis à une surcharge hydrique; assay: Diuretic activity in rats given a water overload, oral; assay type: in vivo; settings: rat, water overload, oral; for response vs control in vivo at 20 mg/kg: read-out: facteur multipliant l'excrétion urinaire du sodium
Experimental: L'activité diurétique a été déterminée sur plusieurs modèles expérimentaux. Chez le rat soumis à une surcharge hydrique, administrés par voie orale à la dose de 20 mg/kg, le COR3760, le COR3789, le COR3792, le COR4002, le COR4003, le COR4009, le COR4010, le COR4012 et le COR4014 multiplient l'excrétion urinaire du sodium par respectivement un facteur 2,9 - 3,1 - 5,9 - 2,6 - 7,2 - 3,5 - 3,8 - 2,9 - 2,4. Administrés à la dose de 10 mg/kg, dans les mêmes conditions, les COR3760, COR3789, COR3792, COR4003 et COR4010 multiplient l'excrétion sodique par respectivement 2,3 - 2,9 - 2,8 - 2,4 et 2,5. La spironolactone multiplie quant à elle l'excrétion sodique d'un facteur 3,6 à la dose de 20 mg/kg. Administré à la dose de 5 mg/kg dans les mêmes conditions, le COR3792 multiplie l'excrétion sodique par 3,3. Administré par voie orale chez le rat ou la souris soumis à une surcharge saline, le COR3760 augmente l'excrétion urinaire volumétrique mesurée à la sixième heure de respectivement 49, 119 et 134% chez la souris et 28, 84 et 116% chez le rat après administration de 10, 20, et 40 mg/kg. Le COR3760 a été administré par voie orale au rat soumis à une surcharge hydrique et l'excrétion urinaire volumétrique, le sodium et le potassium excrétés ont été mesurés sur une période de 6 heures; ces paramètres ont varié de respectivement +17%, +102%, +165% à 10 mg/kg, +19%, +147%, +180% à 20 mg/kg et +36%, +415% et +239% à 40 mg/kg; le rapport Na/K passe de 0,56 chez les animaux témoins à 0,4 à 10 mg/kg, 0,49 à 20 mg/kg et 0, 8 à 40 mg/ kg. Au cours d'une seconde expérimentation, le COR3760 a entrainé des variations de +19%, +157%, +70% à 40 mg/kg, +19%, +319%, +90% à 60 mg/kg et +29%, +472% et +77% à 80 mg/kg; le rapport Na/K passe de 0,59 chez les animaux témoins à 0,88 à 40, 1,15 à 60 et 1,88 à 80 mg/kg.

[7] = system: poumon de cobaye isolé perfusé; assay: Bronchodilator activity: isolated perfused guinea pig lung contracted by methacholine; settings: flow of Tyrode solution, lung contracted by 0,05 microg/ml methacholine; read-out: concentration qui augmente ce débit de 50%
Excerpt: L'activité bronchodilatatrice a été déterminée in vitro par la mesure du débit d'une solution de Tyrode à travers un poumon de cobaye isolé perfusé, contracté par l'addition au fluide de perfusion de 0,05 microg/ml de méthacholine. Les COR3760, COR3789, COR3792, COR4003, COR4008, COR4010 et COR4014 utilisés respectivement aux concentrations de 50, 50, 100, 10, 50, 50 et 10 microg/ml augmentent ce débit de 50%. L'aminophylline entraine cette même activité à la concentration de 100 microg/ml.

[8] = system: strips de veines mésentériques porte de rats normotendus; assay: Calcium antagonist activity: spontaneous contractions of rat portal mesenteric vein strips; settings: 10 microg/ml
[9] = target: oreillettes droites de cobaye (Cavia porcellus, UniProt P47747); assay: Anti-H2 activity: histamine-induced chronotropic effect on unstimulated guinea pig right atria
[10] = system: rat Wistar soumis à une surcharge saline; assay: Diuretic activity in selected Wistar rats given a saline overload (modified Wiebelhaus test); assay type: in vivo
Experimental: L'activité diurétique des produits selon l'invention a été également déterminée chez le rat Wistar soumis à une surcharge saline selon une modification du test décrit par Wiebelhaus et coll., Fed. Proc., 1960, 19, 364, en procédant à une sélection des animaux. A la dose de 20 mg/kg, les COR4003, COR4008, COR4009, COR4010, COR4011, COR4012, COR4014, COR4016, COR4021, COR4025 augmentent l'excrétion urinaire volumétrique mesurée au bout de 6 heures de respectivement 56, 54, 65, 95, 73, 54, 33, 40, 99 et 92 %. L'excrétion urinaire du sodium augmente de respectivement 56, 24, 42, 59, 43, 33, 29, 43, 31, 83, 26, 99, 40 % toujours à cette dose pour les COR4003, COR4008, COR4009, COR4010, COR4011, COR4012, COR4014, COR4016, COR4017, COR4021, COR4023, COR4025 et COR4026. Le rapport Na/K demeure la plupart du temps inchangé. Testé dans les mêmes conditions le furosémide, administré à la dose de 20 mg/kg entraine 63% d'augmentation de l'excrétion urinaire volumétrique et 53% d'augmentation de l'excrétion urinaire du sodium.

souris [11] = assay: Antidepressant activity: inhibition of reserpine-induced ptosis in mice; assay type: in vivo; settings: mouse, oral 50 mg/kg 90 min before reserpine 5 mg/kg i.p.; index 0 (maximum ptosis) to 6 (no ptosis)
Experimental: L'activité antidépressive a été déterminée dans le test de potentialisation de la toxicité de la yohimbine et dans le test de l'inhibition du ptosis induit par la réserpine.
On injecte par voie sous cutanée à des souris, lh avant l'administration par voie orale du produit à tester, une dose non léthale de yohimbine soit 15 mg/kg. Le COR3760 administré à la dose de 100 mg/kg entraine 80% de mortalité dans ces conditions. Des souris reçoivent par voie orale le produit à tester 90 mn avant l'injection par voie intrapéritonéale de 5 mg/kg de réserpine solubilisée. On cote le ptosis selon un index allant de 0 à 6, la cote 0 correspondant à un ptosis maximum et la cote 6 à l'absence de ptosis. Les COR3760 et COR4011 conduisent dans les conditions de l'expérience à un ptosis coté à 4 pour une dose de respectivement 200 et 50 mg/kg.

souris [12] = assay: Anticonvulsant activity: maximal electroshock convulsions in mice; assay type: in vivo; settings: mouse, oral, 100 mg/kg, one hour after administration
Excerpt: L'activité anticonvulsivante est appréciée dans le test de la prévention des convulsions induites par des électrochocs d'intensité maximale.

[13] = 6 h, read-out: augmentation de l'excrétion urinaire volumétrique mesurée au bout de 6 heures
[14] = read-out: augmentation de l'excrétion urinaire du sodium

oreillettes droites de cobaye, sequence (P47747 whole entry): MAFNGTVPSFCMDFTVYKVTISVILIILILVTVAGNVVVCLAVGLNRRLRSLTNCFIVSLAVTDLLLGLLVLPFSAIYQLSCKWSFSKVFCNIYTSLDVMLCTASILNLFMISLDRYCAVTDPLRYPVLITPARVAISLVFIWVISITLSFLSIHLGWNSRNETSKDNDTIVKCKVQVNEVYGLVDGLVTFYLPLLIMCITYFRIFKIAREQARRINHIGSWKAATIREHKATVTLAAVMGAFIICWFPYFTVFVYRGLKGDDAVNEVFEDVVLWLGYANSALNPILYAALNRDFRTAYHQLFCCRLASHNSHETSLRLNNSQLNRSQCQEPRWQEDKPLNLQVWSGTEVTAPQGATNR

Row | Compound | mortalité (souris [3]; intraperitoneal, 200 mg/kg) | mortalité (souris [3]; oral, 300 mg/kg) | inhibition de l'oedème ([2]; dose 10b mg/kg [sic]) [%] | IC80 [4] [µg/mL] | IC50 [5] [µg/mL] | facteur multipliant l'excrétion sodique ([6]; 10 mg/kg) | response vs control in vivo at 20 mg/kg [6] [%] | EC50 [7] [µg/mL] | inhibition de l'augmentation, induite par le calcium, des contractions spontanées [8] | further results
1 | CCCC(CCC)C(=O)O [valproate de sodium, reference compound] | – | – | – | – | – | – | – | – | – | inhibition des convulsions induites par la bicuculline (souris [1]; first bicuculline injection (30 min later)): inhibe les convulsions induites par la première injection; inhibition des convulsions induites par la bicuculline (souris [1]; second bicuculline injection (5 hours later)): sans inhiber celles induites par la deuxième
2 | CNC(C)=C1C(=O)c2ccc(Cl)cc2C1=O [COR3773, Chloro-5 (méthylamino-1 éthylidène)-2 indanedione-1,3] | aucune mortalité | aucune mortalité | – | – | – | – | – | – | – | inhibition de l'oedème ([2]; 200 mg/kg): 53%; inhibition at 2 µg/mL (iléon de cobaye): 50%
3 | CC(NC(C)C)=C1C(=O)c2ccccc2C1=O [COR3792, (Isopropylamino-1 éthylidène)-2 indanedione-1,3] | aucune mortalité | aucune mortalité | 42 | 25 (≈ 109 µM) | 100 (≈ 436 µM) | 2,8 | 590 | 100 (≈ 436 µM) | – | facteur multipliant l'excrétion sodique ([6]; 5 mg/kg): 3,3
4 | CC(NCC1CC1)=C1C(=O)c2ccccc2C1=O [COR4011, (Cyclopropylméthylamino-1 éthylidényl)-2 indanedione-1,3] | aucune mortalité | aucune mortalité | – | – | 25 (≈ 104 µM) | – | – | – | inhibent l'augmentation | effet chronotrope négatif intrinsèque ([9]; at the concentration inhibiting the histamine effect by 50 % (COR4003 100, COR4011 50 microg/ml)): ne présentant pas d'effet chronotrope négatif intrinsèque; IC50 ([9]; read-out: concentration qui inhibe de 50 % cet effet chronotrope, chronotropic effect induced by 5 microg/ml histamine): 207 µM; change in vivo at 20 mg/kg [10, 13]: 73%; change in vivo at 20 mg/kg [10, 14]: 43%; ptosis coté (souris [11]): 4
5 | COc1ccc(Cc2nccc3cc(OC)c(OC)cc23)cc1OC [papavérine, reference compound] | – | – | – | – | – | – | – | – | – | inhibition de ces contractions (iléon de cobaye): la même activité
6 | CCCC(C)(COC(N)=O)COC(N)=O [méprobamate, reference compound] | – | – | – | – | – | – | – | – | – | prévention des convulsions induites par des électrochocs d'intensité maximale (souris [12]): on n'observe plus de convulsions
7 | CCNC(C)=C1C(=O)c2ccccc2C1=O [COR3789, (Ethylamino-1 éthylidène)-2 indanedione-1,3] | aucune mortalité | aucune mortalité | 43 | 25 (≈ 116 µM) | 25 (≈ 116 µM) | 2,9 | 310 | 50 (≈ 232 µM) | inhibent l'augmentation | –
8 | CCCCNC(C)=C1C(=O)c2ccccc2C1=O [COR4010, (Butylamino-1 éthylidényl)-2 indanedione-1,3] | aucune mortalité | aucune mortalité | 39 | 10 (≈ 41.1 µM) | 10 (≈ 41.1 µM) | 2,5 | 380 | 50 (≈ 206 µM) | inhibent l'augmentation | inhibition at 2 µg/mL (iléon de cobaye): 50%; change in vivo at 20 mg/kg [10, 13]: 95%; change in vivo at 20 mg/kg [10, 14]: 59%
